# Experimental data from paper PMC10578354 (Journal of Medicinal Chemistry, 2023).
# System: T24 and 5637 bladder cancer cell lines and healthy bladder epithelial cells (BdECs)
# Test: MTT proliferation assay
# Assay type: cell-based
# Settings: T24 and 5637 vs BdEC, 72 h treatment, Figure 6B
smiles,measurement,value
"CN(C)CCOc1cccc(NC(=O)Cc2c[nH]c3cc(F)ccc23)c1 [NMX-10095, N-(3-(2-(Dimethylamino)ethoxy)phenyl)-2-(6-fluoro-1H-indol-3-yl)acetamide]","inhibition of cell proliferation, cancer vs healthy cells",differential inhibition of cell proliferation
